The source of these data is patent US20140348861A1, “SYNTHETIC PEPTIDES AND RANDOM COPOLYMERS FOR THE TREATMENT OF AUTOIMMUNE DISORDERS” (NATIONAL INSTITUTE OF IMMUNOLOGY, priority 2011, published 2014).

The subject of assay [1] is spleenocytes. The experiment in a line: Th1/Th2 cytokine levels in culture supernates of spleenocytes from treatment groups. Format: cell-based, mice. The note with it: spleenocytes at the end of four weeks, FIG. 4; for decrease in IFN-γ levels: stimulated 48 h. How it is done:
Levels of various cytokines in culture supernates were determined by sandwich ELISA using multiplex cytokine ELISA kit (Millipore). Briefly, 100 μl of cell culture supernates from various groups were incubated with antibody (against various pro and anti-inflammatory cytokines) coated fluorescent polystyrene beads in 96 well microtiter plates, stained with PE-conjugated secondary antibody, provided in the kit and samples were acquired on […] (Bio-rad).
Effect of a group of analogs comprising analogs viz.
Effect of β^3-homo amino acid containing copolymers viz S101, S102 and S103 on Th1/Th2 cytokine balance was studied in comparison to other copolymers viz. GA, J91, J92, for which culture supernates of spleenocytes grown in the presence of various copolymers, were assayed using ELISA to determine the levels of various cytokines. […] Most noteworthy change was in the levels of IL-2 in the S101, S102 and S103 treated groups, where the levels were brought down by 60-70%.

Assay [2] deals with T1, HLA DR2 (Homo sapiens, UniProt P01903+P01911).
T1 construct: endogenous in cells; host or cells: MGAR lymphoblastoid B cell line (IHWG, Seattle)
Put plainly: Inhibition of binding of biotinylated MBP (85-99) to HLA DR2. The note with it: 5 μM competitor, 0.5 μM biotinylated MBP (85-99); FIG. 3. The procedure: HLA DR2 molecules were affinity purified from MGAR (a lymphoblastoid B cell line expressing HLA DR2 obtained from IHWG, Seattle, Wash. —USA) cell line. Cells were cultured in RPMI 1640 supplemented with 10% FBS, 2 mM glutamine, 50 U/ml penicillin and 50 μg/ml streptomycin. The anti-DR antibody L243 was purchased from Santacruz Biotech.
HLA DR2 was purified to a purity of 90-95% by immunoaffinity purification. Briefly, MGAR cells were detergent solubilized to prepare the membrane fraction which was passed sequentially through sepharose CL-6B, normal mouse serum-affinity-gel, Protein A sepharose CL-4B and L243-protein A sepharose-CL-4B at a flow rate of around 10-11 ml/h. The final eluate was dialyzed against 0.1% deoxycholate, 10 mM Tris-HCl (pH 8.0) and concentrated using centricon concentrators from Millipore. Protein concentration was determined using bicinchoninic acid (BCA) assay (Sigma). The obtained protein fraction was also run on SDS-PAGE gel to confirm identity and purity.
Copolymers (GA, J91, J92, S101 to S109) and peptide analogs (S1-S82) at a final concentration of 5 μM were coincubated with biotinylated MBP (85-99; purchased from Bioconcept Labs Pvt. Ltd. India) at a final concentration of 0.5 μM and HLA DR2 (0.5 μg/sample) molecules for 40 h at 37° C. and transferred to a 96-well microtiter assay plates coated with 1 μg/well purified L243 mAb. Coating of microtiter plates was performed with 100 μl of L243 mAb in PBS for 18 h at 4° C. […] 3,3′,5,5′-tetramethylbenzidine (TMB, substrate for […]) was added to each well and absorbance at 410 nm was recorded on an ELISA reader (TECAN infinite M200).
Ability of analogs viz. […] Most of the analogs designed herein viz.
β^3-homo amino acid containing copolymers viz. […] Copolymers containing β^3-homo amino acids viz.

For assay [3] the following is noted: in vivo; cited from earlier work.
For assay [4], the system named is relapsing remitting EAE in SJL/J mice. The experiment in a line: Prophylactic (pre-treatment) efficacy in relapsing remitting EAE. It is filed as in vivo. The note with it: pre-treatment 0.5 mg in IFA; FIG. 2i. The procedure: (§1) To induce RR EAE or chronic progressive EAE, SJL/J or C57BL6/J mice were immunized subcutaneously with 0.2 mg of MBP (85-109) or 0.1 mg MOG (35-55) emulsified in CFA and 200 ng of pertussis toxin was injected intraperitoneally on day 0 and day 2 so as to permeablize the blood brain barrier. All the animals in various experimental groups were scored daily for clinical disability on a scale of 0-6 where 0=no neurological symptoms, 1=limp tail, 2=weakness of hind limbs or ataxia, 3=incomplete paralysis of hind limbs, 4=complete paralysis of hind limbs, 5=complete paralysis of all four limbs, 6=dead. Diseased animals were provided easy access to food and water.

Assay [5] deals with SJL/J mice exhibiting MBP (85-109) induced relapsing remitting form of EAE. The experiment in a line: Therapeutic activity in MBP (85-109) induced relapsing remitting EAE, treatment from day 11. Format: in vivo. The note with it: for Therapeutic activity in comparison to GA (Therapeutic activity (Analogs) − Therapeutic activity GA) / Therapeutic activity in comparison to J5 (Therapeutic activity (Analogs) − Therapeutic activity (J5)) / Therapeutic activity = % reduction in cumulative clinical disability score: SJL/J mice, RR EAE; for Therapeutic activity in comparison to GA (Therapeutic activity (Analogs) − Therapeutic activity GA) / Therapeutic activity in comparison to J5 (Therapeutic activity (Analogs) − Therapeutic activity (J5)): 0.1 mg daily for two weeks. In short, it runs like this:
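Female SJL/J mice, 8-10 weeks, immunized s.c. with 0.2 mg MBP (85-109) in CFA plus 200 ng pertussis toxin i.p. on days 0 and 2. Treatment ran from day 11 for two weeks. Clinical disability was scored daily on a 0-6 scale.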

Assay [6] deals with MOG (35-55) induced chronic EAE in C57BL6/J mice. The experiment in a line: Prophylactic (pre-treatment) efficacy in MOG (35-55) induced chronic EAE. It is filed as in vivo. The note with it: FIGS. 2j and 2k. The procedure:
as §1

The test system of assay [7] is MBP (85-109) reactive CD4+ and CD8+ T-cells. The experiment in a line: Recall (proliferative) response of CD4+ and CD8+ T-cells to MBP (85-109) after pre-treatment. Format: cell-based, mice. From the text: Spleen derived dendritic cells were isolated to >95% purity using plasmacytoid dendritic cell isolation kit from Miltenyi Biotech. Spleenocytes were isolated from spleen of SJL/J mice, minced and passed through a 70 micron cell strainer (BD Falcon) to get a single cell suspension. The resulting spleenocytes were first depleted of CD3+ T cells and CD 49b/pan NK+ cells using LD depletion columns provided in the kit. The CD3 and CD 49b negative cell population was collected, counted and positive selection of CD11c+ dendritic cells was performed on positive selection columns provided in the kit. The CD11c+ population was collected by removing the column from the magnetic stand, stained with trypan blue to check the viability and purity was determined using flow cytometry.
After two weeks spleenocytes were isolated, fractioned into CD4+ and CD8+ T-cells, cultured with MBP (85-109) pulsed spleen derived dendritic cells and assayed for proliferation (^3[H]-thymidine). […] As recall response to MBP (85-109) is a direct measure of frequencies of MBP (85-109) reactive CD4+ or CD8+ T-cells, in the immunized animals.

The subject of assay [8] is MOG (35-55) induced chronic progressive EAE in C57BL6/J mice. Put plainly: Therapeutic effect in MOG (35-55) induced chronic progressive EAE. Format: in vivo. The note with it: daily dose of 5 mg/Kg body weight, FIGS. 2e and 2f. How it is done:
as §1
Some analogs viz. […] Dosage kinetic experiments with analog S27 representing the group of analogs comprising viz.

Setting [9] is: synthetic peptides, 0.1 mg daily for two weeks from day 11 post-immunization.

Non-standard residues stand in square brackets, D forms with d. No end group written: not given here. β3hY = N[C@H](CC(=O)O)Cc1ccc(O)cc1; β3hK = NCCCC[C@H](N)CC(=O)O; β3hV = CC(C)[C@H](N)CC(=O)O; β3hA = C[C@H](N)CC(=O)O

T1 sequence (P01903 26-254): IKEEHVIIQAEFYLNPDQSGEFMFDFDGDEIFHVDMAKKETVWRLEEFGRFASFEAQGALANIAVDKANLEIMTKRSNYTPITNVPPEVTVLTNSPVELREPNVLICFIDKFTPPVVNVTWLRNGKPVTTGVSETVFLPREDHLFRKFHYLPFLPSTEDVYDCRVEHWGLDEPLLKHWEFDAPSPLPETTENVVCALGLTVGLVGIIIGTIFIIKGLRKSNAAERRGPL
T1 sequence (P01911 30-266): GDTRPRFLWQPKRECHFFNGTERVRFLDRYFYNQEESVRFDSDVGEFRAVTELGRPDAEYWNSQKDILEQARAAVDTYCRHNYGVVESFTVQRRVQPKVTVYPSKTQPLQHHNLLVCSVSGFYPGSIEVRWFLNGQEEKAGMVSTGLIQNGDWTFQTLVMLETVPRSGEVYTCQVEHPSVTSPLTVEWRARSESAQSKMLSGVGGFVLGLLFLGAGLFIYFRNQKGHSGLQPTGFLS

With “Glatiramer Acetate [GA, reference compound]”, in assay [1], the “decrease in IFN-γ levels” value is recorded as “approximately 70%” and the “rise in IL-4 levels” value was approximately 2 fold. Besides, the “inhibition of binding of biotinylated MBP (85-99) to HLA DR2” value in assay [2] is given as approximately 21%. Moreover, the “success rate in reducing the relapses” value in assay [3] is on record as 30%. Besides, the “effect on clinical onset of disease” value in assay [4] is “no effect on clinical onset of disease”. Moreover, in assay [5], the “Therapeutic activity in comparison to GA (Therapeutic activity (Analogs) − Therapeutic activity GA)” value came to 0% and the “Therapeutic activity in comparison to J5 (Therapeutic activity (Analogs) − Therapeutic activity (J5))” value is listed as −3.957%. Further, the “Therapeutic activity = % reduction in cumulative clinical disability score” value (“Therapeutic activity = % reduction” for short) in assay [5] (amino acid copolymers, 0.1 mg daily for two weeks from day 11) is on record as 27.12%. Besides, the “Therapeutic activity = % reduction” value in assay [5] (setting [9]) was found to be 31.3369%.
For the substance “Kβ^3Vβ^3Eβ^3Aβ^3Yβ^3Kβ^3Aβ^3Aβ^3Aβ^3Aβ^3 ([β3hK][β3hV]X[β3hA][β3hY][β3hK][β3hA][β3hA][β3hA][β3hA]; not fully specified (residue 3); printed as Kβ^3Vβ^3Eβ^3Aβ^3Yβ^3Kβ^3Aβ^3Aβ^3Aβ^3Aβ^3) [Analog S27]”, in assay [1], the “decrease in IFN-γ levels” value is reported as “approximately 70%” and the “change in IL-4 levels” value is listed as “only a marginal increase”. In addition, in assay [2], the “inhibition of binding of biotinylated MBP (85-99) to HLA DR2” value is given as “approximately 60%”. Moreover, the “delay of clinical onset of disease” value in assay [4] was approximately 3 days. The “duration of effect once the treatment is stopped” value in assay [5] (FIG. 2b) is recorded as “up to two weeks”. For the same substance, in assay [5], the “Therapeutic activity in comparison to GA (Therapeutic activity (Analogs) − Therapeutic activity GA)” value is 33.8% and the “Therapeutic activity in comparison to J5 (Therapeutic activity (Analogs) − Therapeutic activity (J5))” value is given as 29.84%. In addition, the “efficacy relative to GA” value in assay [5] (both treatment and pre-treatment scenarios) is “approximately two times better”. Besides, in assay [5] (dosage kinetic experiments, rodents, FIGS. 2c and 2d), the optimum daily dosage was determined as 5 mg/kg body weight. Further, the “Therapeutic activity = % reduction” value in assay [5] (setting [9]) was 65.13%. The suppression after pre-treatment in assay [6] is 55-60%. Further, in assay [7] (0.5 mg in IFA a day before immunization, spleenocytes after two weeks, FIG. 1a), the “recall response to MBP (85-109), CD4+ T-cell fraction (3[H]-thymidine proliferation)” value was “considerable suppression”. In assay [7] (0.5 mg in IFA a day before immunization, spleenocytes after two weeks, FIG. 1b), the “recall response to MBP (85-109), CD8+ T-cell fraction, suppression compared to J5 or GA treated group” value was “much more pronounced”. Also, the “recall response to purified protein derivative (PPD)” value in assay [7] (specificity control antigen, FIGS. 1a and b) is “remained unaffected”. In addition, in assay [8], the “reduction in clinical disability score” value is on record as approximately 60%.
